According to patent US10912764B2, “Salinosporamides and methods of use thereof” (The Regents of the University of California, priority 2002, dated 2021):
Converted amounts (≈) assume the structure as drawn. Like-named read-outs stand apart in the source and are kept apart here.

Tests used:
Candida albicans = assay: Antifungal screening, Candida albicans; format: cell-based; conditions: antifungal activity
[1] = system: Candida albicans (amphoterocin B resistant); assay: Antifungal screening, Candida albicans (amphoterocin B resistant); format: cell-based
[2] = system: Staphylococcus aureus (methecillin resistant); assay: Antibacterial screening, Staphylococcus aureus; format: cell-based
[3] = system: Enterococcus faecium (vanomycin resistant); assay: Antibacterial screening, Enterococcus faecium; format: cell-based
[4] = Solubility in organic solvents; conditions: CHCl3, methanol, and other polar solvents like DMSO, acetone, acetonitrile, benzene, pyridine, N,N-dimethyformamide
HCT-116 = HCT-116 human colon cancer cell cytotoxicity assay
[5] = HCT-116, read-out: IC50, cytotoxic activity against human colon cancer cells

C[C@@]12OC(=O)[C@]1([C@@H](O)[C@@H]1C=CCCC1)NC(=O)[C@@H]2CCCl [Salinosporamide A]
IC50 (Candida albicans): 250 µg/mL (≈ 797 µM) | IC50 [1]: > 250 µg/mL | antibacterial activity, Staphylococcus aureus [2]: no antibacterial activity | IC50 ([2]; Staphylococcus aureus): > 250 µg/mL | antibacterial activity, Enterococcus faecium [3]: no antibacterial activity | IC50 ([3]; Enterococcus faecium): > 250 µg/mL | solubility [4]: soluble | IC50 (HCT-116; HCT-116, read-out: IC50, HCT-116): 0.011 µg/mL (≈ 0.0351 µM) | IC50 (HCT-116; [5]): 0.011 µg/mL (≈ 0.0351 µM)

COc1cc([C@@H]2c3cc4c(cc3[C@@H](O[C@@H]3O[C@@H]5CO[C@@H](C)O[C@H]5[C@H](O)[C@H]3O)[C@H]3COC(=O)[C@H]23)OCO4)cc(OC)c1O [etoposide, reference compound]
IC50 (HCT-116; [5]): 0.828 µg/mL (≈ 1.41 µM)
